# Where two headings read alike, the source gives them in different places. No end group written: not given here.
# Tests used:
# rats = conditions: cited from earlier work
# Healthy human volunteers = test: Effect of iv infusion on satiety, hunger, fullness, appetite (visual analogue scale) and ad libitum energy intake in a double-blind crossover trial; assay type: in vivo
# Excerpt: Healthy human volunteers (20 subjects) were in a double-blind crossover trial given an iv infusion of 50 pmol/(kg·h) of GLP-1(7-36)amide or saline on separate, but otherwise identical experimental days. The infusion was started at 9.00 and lasted until 15.00. At 9.45 the subjects received a fixed amount of breakfast and at 14.15 they had lunch of an identical composition but ad libitum. The subjects rated their feeling of satiety, hunger, fullness and appetite on a visual analogue scale every half hour. The results are given below:
# The energy intake of each subjects was measured. The intakes were 3.9 MJ with GLP-1 and 4.3 MJ with Saline resulting in a p-value of 0.009.
# Mice [1] = test: Appetite suppression in mice: sucrose consumption immediately after ip injection (Example 2); assay type: in vivo; conditions: mice fasted two days, ip 85 micrograms (3.4 mg/kg) in saline, tested immediately after injection, 10 minute period; p-value 0.002
# Procedure: Mice were deprived of their normal food for two days and given free access to a 20% sucrose solution on the first day of food deprivation. After the two day food deprivation period, the mice were injected intraperitoneally with 0.5 ml of a solution containing the test substance. Immediately after injection, individual mice were placed in one of eight 15 cm square test boxes with a stainless steel grid floor and a glass drinking tube which projected into the box. […] Consumption of the sucrose solution was measured over a 10 minute period by electronically recording the total amount of contact with the sucrose solution during the test session. The degree of appetite suppression produced by a given test substance was determined by statistical comparison of the mean duration of sucrose consumption by control (vehicle treated) mice with that of mice treated with a test substance. The degree of appetite suppression in a treated group of mice was expressed as percent difference between the test and control group's response duration means. […]
# Mice [2] = test: Appetite suppression in mice: Complan consumption after subcutaneous injection (Example 4); assay type: in vivo; conditions: p<0.001
# Procedure: The test method was as described in Example 3 except that the mice were pre-exposed to formula milk (Complan®—a nutritionally complete infant milk substitute) for one day, then fasted one day. On the test day, consumption of Complan® was measured for each mouse during a 10 min period.
# Mice were tested for appetite suppression by subcutaneous injection of GLP-1(7-36)amide dissolved in phosphate buffered saline.
# [3] = iv infusion 50 pmol/(kg·h), 9.00 to 15.00, 20 healthy subjects, rated every half hour, p = 0.007
substance,measurement,setting,value
"GLP-1(1-36)amide (HDEFERHAEGTFTSDVSSYLEGQAAKEFIAWLVKGR-NH2; UniProt P01275 92-127, looked up, fragment) [fragment 1-36 of GLP-1 as C-terminal amide]",Effect on food intake,"rats; route not stated, Tang-Christensen et al. 1996",no effect
GLP-1(1-37),Energy intake,"Healthy human volunteers; ad libitum lunch during iv infusion 50 pmol/(kg·h), saline 4.3 MJ, p-value 0.009",3.9 mJ
same,Satiety (visual analogue scale rating) versus saline,"Healthy human volunteers; iv infusion 50 pmol/(kg·h), 9.00 to 15.00, 20 healthy subjects, rated every half hour, p = 0.006","GLP-1 > Saline, p = 0.006"
same,Appetite (visual analogue scale rating) versus saline,Healthy human volunteers; [3],"GLP-1 < Saline, p = 0.007"
same,Hunger (visual analogue scale rating) versus saline,Healthy human volunteers; [3],"GLP-1 < Saline, p = 0.007"
same,Fullness (visual analogue scale rating) versus saline,"Healthy human volunteers; iv infusion 50 pmol/(kg·h), 9.00 to 15.00, 20 healthy subjects, rated every half hour, p = 0.010","GLP-1 > Saline, p = 0.010"
same,Effect on food intake,"rats; intracerebroventricular administration, Tang-Christensen et al. 1996",profound effect
same,Effect on food intake,"rats; intracerebroventricular administration, Turton et al. 1996",profound effect
same,Effect on food intake,"rats; peripheral administration, Tang-Christensen et al. 1996",no significant effect
GLP-1(7-36)amide,Suppression of sucrose consumption,Mice [1],60%
same,Suppression of feeding (Complan consumption),"Mice [2]; 1 mg/kg, 30 min after injection",45%
same,"Maximum effect, suppression of feeding (Complan consumption)",Mice [2]; highest dose tested 20 mg/kg,60%

# Reference: patent US20030232754A1, “Use of GLP-1 peptides” (priority 1996, published 2003)
